{"source": "paper PMC8911971", "about": "“Detection of Bacterial α-L-Fucosidases with an Ortho-Quinone Methide-Based Probe and Mapping of the Probe-Protein Adducts” (Molecules, 2022)", "format_in_all_cases": "biochemical", "key": {"BfFucH": {"target": "T1, BfFucH (Bacteroides fragilis, UniProt Q5LAD6)", "T1 construct": "gene BF9343_3156; codon-optimized gene in pET47b+, expressed in E. coli BL21(DE3), Ni-NTA and Superdex 200 purified; about 50 kDa", "T1 sequence (Q5LAD6 21-434)": "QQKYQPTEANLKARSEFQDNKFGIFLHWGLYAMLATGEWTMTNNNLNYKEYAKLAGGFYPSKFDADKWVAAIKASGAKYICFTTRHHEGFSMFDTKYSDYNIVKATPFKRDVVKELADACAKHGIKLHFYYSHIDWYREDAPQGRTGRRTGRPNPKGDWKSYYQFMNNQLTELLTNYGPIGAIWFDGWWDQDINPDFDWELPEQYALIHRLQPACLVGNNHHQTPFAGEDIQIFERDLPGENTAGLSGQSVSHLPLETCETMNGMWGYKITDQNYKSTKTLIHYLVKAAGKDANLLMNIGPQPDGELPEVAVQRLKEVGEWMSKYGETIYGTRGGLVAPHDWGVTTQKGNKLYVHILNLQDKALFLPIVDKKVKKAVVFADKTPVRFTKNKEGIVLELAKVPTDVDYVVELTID", "assay": "block of AH062 probe labelling, blot chemiluminescence", "conditions": "100 uM inhibitor preincubated, 350 uM AH062, PBS pH 7.4; competitive"}, "TmFuc": {"target": "T2, TmFuc (Thermotoga maritima, UniProt Q9WYE2)", "T2 construct": "gene TM_0306; recombinant, commercial (Megazyme)", "T2 sequence (Q9WYE2 1-449)": "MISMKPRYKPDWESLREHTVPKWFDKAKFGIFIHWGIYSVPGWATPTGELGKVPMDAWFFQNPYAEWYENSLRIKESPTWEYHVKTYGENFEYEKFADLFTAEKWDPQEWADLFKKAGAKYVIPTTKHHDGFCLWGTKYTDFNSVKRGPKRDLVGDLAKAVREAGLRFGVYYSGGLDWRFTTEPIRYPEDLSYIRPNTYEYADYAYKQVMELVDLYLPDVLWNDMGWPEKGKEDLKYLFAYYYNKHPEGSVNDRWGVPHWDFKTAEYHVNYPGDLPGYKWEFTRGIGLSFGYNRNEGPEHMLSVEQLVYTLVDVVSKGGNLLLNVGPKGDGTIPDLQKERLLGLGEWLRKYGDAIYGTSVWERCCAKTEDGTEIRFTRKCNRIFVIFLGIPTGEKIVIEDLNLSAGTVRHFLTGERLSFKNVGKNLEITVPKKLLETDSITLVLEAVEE", "assay": "pepsin digest LC-MS/MS of probe adducts", "conditions": "covalent after turnover to quinone methide; adducts at W80 or W105, outside the active site"}, "AfcA": {"target": "T3, AfcA (Bifidobacterium bifidum, UniProt Q6JV24)", "T3 construct": "catalytic GH95 fragment, residues 577-1474, C-terminal GGSGGSHHHHHHHH tag; pMAL-c4x-1-H(RBS)+ in E. coli BL21(DE3), Ni-NTA and Superdex 200 purified", "T3 sequence (Q6JV24 entry or part of it)": "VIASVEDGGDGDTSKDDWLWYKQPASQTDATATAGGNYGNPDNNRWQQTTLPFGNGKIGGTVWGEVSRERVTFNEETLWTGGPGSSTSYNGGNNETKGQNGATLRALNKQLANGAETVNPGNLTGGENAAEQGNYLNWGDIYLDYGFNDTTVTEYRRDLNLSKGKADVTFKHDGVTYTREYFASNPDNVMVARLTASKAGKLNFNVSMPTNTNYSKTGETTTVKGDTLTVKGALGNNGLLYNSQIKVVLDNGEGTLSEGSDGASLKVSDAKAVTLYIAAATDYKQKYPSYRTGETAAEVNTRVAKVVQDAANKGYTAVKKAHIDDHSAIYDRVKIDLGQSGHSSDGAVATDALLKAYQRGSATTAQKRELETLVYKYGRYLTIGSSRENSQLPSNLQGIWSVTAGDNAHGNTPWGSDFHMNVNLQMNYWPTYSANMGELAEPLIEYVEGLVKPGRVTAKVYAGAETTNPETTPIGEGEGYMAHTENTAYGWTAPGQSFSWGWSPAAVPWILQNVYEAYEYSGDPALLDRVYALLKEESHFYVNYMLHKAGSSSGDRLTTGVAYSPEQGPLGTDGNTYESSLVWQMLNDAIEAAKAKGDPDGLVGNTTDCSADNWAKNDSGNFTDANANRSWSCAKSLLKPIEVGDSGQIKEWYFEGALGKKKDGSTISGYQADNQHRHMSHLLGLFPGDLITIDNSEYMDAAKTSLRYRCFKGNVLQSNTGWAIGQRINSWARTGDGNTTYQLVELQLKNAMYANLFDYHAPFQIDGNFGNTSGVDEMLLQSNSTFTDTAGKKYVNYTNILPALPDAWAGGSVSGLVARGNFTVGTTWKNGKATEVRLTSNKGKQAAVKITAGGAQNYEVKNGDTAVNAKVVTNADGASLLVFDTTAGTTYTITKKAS", "assay": "probe labelling, click biotinylation, blot chemiluminescence", "conditions": "350 uM probe, PBS pH 7.4, 37 C or room temperature (Figure 1); covalent after turnover to quinone methide"}}, "data": [{"smiles": "C[C@@H]1NC[C@@H](O)[C@H](O)[C@@H]1O", "note": "[L-fuconojirimycin]", "values": [{"measurement": "block of AH062 probe labelling, blot chemiluminescence", "setting": "BfFucH", "value": "distinguishing the active from the inhibited enzyme (prepared by preincubation with the competitive inhibitor L-fuconojirimycin"}]}, {"smiles": "C[C@@H]1O[C@@H](Oc2ccc(NC(=O)CCOCCOCCOCCN=[N+]=[N-])cc2CF)[C@@H](O)[C@H](O)[C@@H]1O", "note": "[compound 12, 3-(2-(2-(2-azidoethoxy)ethoxy)ethoxy)-N-(3-(fluoromethyl)-4-(((2S,3S,4R,5S,6S)-3,4,5-trihydroxy-6-methyltetrahydro-2H-pyran-2-yl)oxy)phenyl)propanamide]", "values": [{"measurement": "pepsin digest LC-MS/MS of probe adducts", "setting": "TmFuc", "value": "the quinone methide generated from AH062 had labeled either tryptophan W80 or W105"}, {"measurement": "probe labelling, click biotinylation, blot chemiluminescence", "setting": "AfcA", "value": "the probe detected the enzyme in a concentration-dependent manner"}]}]}
